Experimental data published in US12582638B2, “Pharmaceutical composition for treating cancer, containing mTOR-signaling inhibitor as active ingredient” (KOREA ADVANCED INSTITUTE OF SCIENCE AND TECHNOLOGY, priority 2020, dated 2026).

How the values were obtained:
HCT116 = experiment: RNA-seq assay, gene set enrichment, pathway enrichment and DEG analysis; assay type: cell-based, human; details: FIG. 12
Procedure: For the final detection of significant gene-sets, gene annotation databases (KEGG pathway, Gene Ontology, etc.) with various biological information about genes were used to discover various gene-sets by grouping genes with specific functions among all the genes used in the RNA-seq experiment. Significant genes were determined with reference to a difference in expression values between the two classes within each gene-set, and statistically significant gene-set was finally detected based on the significant genes. […] In DEG analysis, expression values of genes are measured and statistically processed to select a significant gene candidate group (differentially expression genes) with a difference in expression between a control and a comparison group.

A498 = experiment: Cell viability, CellTiterGlo, 72 hours; assay type: cell-based; details: Homo sapiens, A498 cells, Kidney
How it was run: (§1)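 Cancer cell lines were exposed to various concentrations of lomitapide at 37° C in 5% or 10% CO2. After equilibration to room temperature for 1 hour, CellTiterGlo reagent was added, and luminescence read 1 hour later gave percent viability.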

J82 = experiment: Cell viability, CellTiterGlo, 72 hours; assay type: cell-based; details: Homo sapiens, J82 cells, Bladder
How it was run: as §1

DV90 = experiment: Cell viability, CellTiterGlo, 72 hours; assay type: cell-based; details: Homo sapiens, DV-90, DV90 cells, Lung
How it was run: as §1

RERF-LC-Ad2 = experiment: Cell viability, CellTiterGlo, 72 hours; assay type: cell-based; details: RERF-LC-Ad2 cells, Lung
How it was run: as §1

MOLT-4 = experiment: Cell viability, CellTiterGlo, 72 hours; assay type: cell-based; details: Homo sapiens, MOLT-4 cells, Blood
How it was run: as §1

NCI-H1838 = experiment: Cell viability, CellTiterGlo, 72 hours; assay type: cell-based; details: Homo sapiens, NCI-H1838 cells, Lung
How it was run: as §1

SNU-216 = experiment: Cell viability, CellTiterGlo, 72 hours; assay type: cell-based; details: SNU-216 cells, Stomach
How it was run: as §1

HEC-1-A = experiment: Cell viability, CellTiterGlo, 72 hours; assay type: cell-based; details: Homo sapiens, HEC-1-A cells, Endometrium
How it was run: as §1

HCC 1569 = experiment: Cell viability, CellTiterGlo, 72 hours; assay type: cell-based; details: Homo sapiens, HCC1569, HCC 1569 cells, Breast
How it was run: as §1

BEN = experiment: Cell viability, CellTiterGlo, 72 hours; assay type: cell-based; details: BEN cells, Lung
How it was run: as §1

HEC-1-B = experiment: Cell viability, CellTiterGlo, 72 hours; assay type: cell-based; details: Homo sapiens, HEC-1-B cells, Endometrium
How it was run: as §1

SK.BR-3 = experiment: Cell viability, CellTiterGlo, 72 hours; assay type: cell-based; details: Homo sapiens, SK.BR-3 cells, Breast
How it was run: as §1

SW480 = experiment: Cell viability, CellTiterGlo, 72 hours; assay type: cell-based; details: Homo sapiens, SW480 cells, Colon
How it was run: as §1

A375 = experiment: Cell viability, CellTiterGlo, 72 hours; assay type: cell-based; details: Homo sapiens, A-375, A375 cells, Skin
How it was run: as §1

NCI-H1703 = experiment: Cell viability, CellTiterGlo, 72 hours; assay type: cell-based; details: Homo sapiens, NCI-H1703 cells, Lung
How it was run: as §1

A549 = experiment: Cell viability, CellTiterGlo, 72 hours; assay type: cell-based; details: Homo sapiens, A549 cells, Lung
How it was run: as §1

Kato III = experiment: Cell viability, CellTiterGlo, 72 hours; assay type: cell-based; details: Homo sapiens, Kato III cells, Stomach
How it was run: as §1

HL-60 = experiment: Cell viability, CellTiterGlo, 72 hours; assay type: cell-based; details: Homo sapiens, HL-60 cells, Blood
How it was run: as §1

KMS-12-BM = experiment: Cell viability, CellTiterGlo, 72 hours; assay type: cell-based; details: Homo sapiens, KMS-12-BM cells, Blood
How it was run: as §1

MOLM-13 = experiment: Cell viability, CellTiterGlo, 72 hours; assay type: cell-based; details: Homo sapiens, MOLM-13 cells, Blood
How it was run: as §1

NCI-H1437 = experiment: Cell viability, CellTiterGlo, 72 hours; assay type: cell-based; details: Homo sapiens, NCI-H1437 cells, Lung
How it was run: as §1

MKN-45 = experiment: Cell viability, CellTiterGlo, 72 hours; assay type: cell-based; details: Homo sapiens, MKN-45 cells, Stomach
How it was run: as §1

Hs 746T = experiment: Cell viability, CellTiterGlo, 72 hours; assay type: cell-based; details: Homo sapiens, Hs746T, Hs 746T cells, Stomach
How it was run: as §1

A2058 = experiment: Cell viability, CellTiterGlo, 72 hours; assay type: cell-based; details: Homo sapiens, A2058 cells, Skin
How it was run: as §1

NCI-H82 = experiment: Cell viability, CellTiterGlo, 72 hours; assay type: cell-based; details: Homo sapiens, NCI-H82 cells, Lung
How it was run: as §1

[1] = system: p-AKT, p-mTOR, p-S6K, p-S6; experiment: Cell signaling assay, western blot, HCT116; assay type: cell-based, human; details: 0, 5, and 10 μM, dose-dependent, FIG. 6
Procedure: (§2) Cells treated with various concentrations (0, 5, and 10 μM) of lomitapide were lysed with RIPA buffer containing a protease-inhibitor cocktail. The whole-cell lysate was incubated on ice for 30 minutes. After centrifugation at 4° C. and 13,300×g for 15 minutes, the supernatant was collected. For use as controls, HCT116, SW480, HT29, MDA-MB-231, and MDA-MB-468 cells were treated with 1 μM of torin, known as an mTOR inhibitor.
(§3) For western blot analysis, the supernatant was loaded onto 10% SDS-PAGE gel. The separated proteins were blotted onto a PVDF membrane. Then, the blots were incubated with antibodies at 4° C. for 12 hours as follows (Table 2).
(§4) Then, the blots were washed with TBST (a mixture of tris-buffered saline (TBS) and Tween 20), incubated with horseradish peroxidase-conjugated secondary antibody (Cell signaling) at 37° C. for 1 hour, and washed, followed by detecting enhanced chemiluminescence (ECL; Amersham).

p-S6K, p-S6, LC3 = experiment: Cell signaling assay, western blot, MDA-MB-231; assay type: cell-based, human; details: 0, 5, and 10 μM, FIG. 7c
Procedure: as §2, §3, §4

O=C(NC1CCN(CCCCC2(C(=O)NCC(F)(F)F)c3ccccc3-c3ccccc32)CC1)c1ccccc1-c1ccc(C(F)(F)F)cc1 [lomitapide, N-(2,2,2-trifluoroethyl)-9-[4-[4-[[[4′-(trifluoromethyl)[1,1′-biphenyl]2-yl]carbonyl]amino]-1-piperidinyl]butyl]-9H-fluoren-9-carboxamide]
expression of autophagy-related genes ATG family, ULK1, and DDIT4 (DEG analysis) (HCT116): significantly expressed
IC50 (A498): 2.9 µM
IC50 (J82): 3.6 µM
IC50 (DV90): 5.2 µM
IC50 (RERF-LC-Ad2): 2.6 µM
IC50 (MOLT-4): 3.6 µM
IC50 (NCI-H1838): 4 µM
IC50 (SNU-216): 3.1 µM
IC50 (HEC-1-A): 4.9 µM
IC50 (HCC 1569): 2.9 µM
IC50 (BEN): 4.2 µM
IC50 (HEC-1-B): 6.9 µM
IC50 (SK.BR-3): 3.9 µM
IC50 (SW480): 2.5 µM
IC50 (A375): 1.8 µM
IC50 (NCI-H1703): 5.7 µM
IC50 (A549): 3.6 µM
IC50 (Kato III): 5.4 µM
IC50 (HL-60): 3.3 µM
IC50 (KMS-12-BM): 3.5 µM
IC50 (MOLM-13): 6.3 µM
IC50 (NCI-H1437): 3.1 µM
IC50 (MKN-45): 3.9 µM
IC50 (Hs 746T): 2.5 µM
IC50 (A2058): 1.4 µM
IC50 (NCI-H82): 3.2 µM
phosphorylation of target proteins levels (p-AKT, p-mTOR, p-S6K, p-S6) [1]: decreased phosphorylation
conversion from LC3I into LC3II (p-S6K, p-S6, LC3): increased induction of conversion from LC3I into LC3II
phosphorylation levels of target proteins (p-S6K and p-S6) (p-S6K, p-S6, LC3): remarkably decreased phosphorylation levels
